Assays:
human Gal-1 (hGal-1) = test: Competitive binding assay: biotinylated hGal-1 binding to microplate-adsorbed asialofetuin (ASF); details: Activity on hGal-1; binding of biotinylated hGal-1 to ASF-coated plates; mean values
Experimental: (§1) Evaluation of Compound Inhibitory Activity (IC50)
The inhibitory activity of compounds is determined in competitive binding assays. This spectrophotometric assay measures the binding of biotinylated human Gal-3 (hGal-3) or human Gal-1 (hGAl-1), respectively, to a microplate-adsorbed glycoprotein, asialofetuin (ASF) (Proc Natl Acad Sci USA. 2013 Mar. 26; 110(13):5052-7.). Alternatively, and preferably, a human Gal-1 version in which all six cysteines are substituted by serines may be used.
Briefly, compounds are serially diluted in DMSO (working dilutions). ASF-coated 384 well pates are supplemented with 22.8 μL/well of biotinylated hGal-3 or hGal-1 in assay buffer (i.e. 300-1000 ng/mL biotinylated hGal-3 or hGal-1) to which 1.2 μL of compound working dilutions are added and mixed.
(§2) Plates are incubated for 3 hours at 4° C. then washed with cold assay buffer (3×50 uL), incubated for 1 hour with 25 μL/well of a streptavidin-peroxidases solution (diluted in assay buffer to 80 ng/mL) at 4° C., followed by further washing steps with assay buffer (3×50 uL). Finally, 25 μL/well of ABTS substrate is added. OD (410 nm) is recorded after 30 to 45 min and IC50 values are calculated.
(§3) The calculated IC50 values may fluctuate depending on the daily assay performance. Fluctuations of this kind are known to those skilled in the art. IC50 values from several measurements are given as mean values.

human Gal-3 (hGal-3) = human Gal-3 (hGal-3) (Homo sapiens (Human), UniProt P17931); test: Competitive binding assay: biotinylated hGal-3 binding to microplate-adsorbed asialofetuin (ASF); details: Activity on hGal-3; binding of biotinylated hGal-3 to ASF-coated plates; mean values
Sequence of human Gal-3 (hGal-3) (P17931 whole entry): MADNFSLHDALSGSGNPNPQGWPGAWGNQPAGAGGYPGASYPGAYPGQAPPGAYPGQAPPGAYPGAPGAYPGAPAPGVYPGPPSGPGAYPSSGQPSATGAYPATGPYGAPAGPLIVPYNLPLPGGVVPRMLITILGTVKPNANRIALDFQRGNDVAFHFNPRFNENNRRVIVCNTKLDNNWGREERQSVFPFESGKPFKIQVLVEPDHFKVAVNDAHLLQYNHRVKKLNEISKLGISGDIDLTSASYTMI
Experimental: as §1
The inhibitory activity of compounds is determined in competitive binding assays. […] Alternatively, and preferably, a human Gal-1 version in which all six cysteines are substituted by serines may be used.
Briefly, compounds are serially diluted in DMSO (working dilutions).
as §2, with “added.” for “added. OD (410 nm) is recorded after 30 to 45 min and IC50 values are calculated.”
as §3

Sequence of human Gal-1 (hGal-1) (P09382 2-135 limits assumed): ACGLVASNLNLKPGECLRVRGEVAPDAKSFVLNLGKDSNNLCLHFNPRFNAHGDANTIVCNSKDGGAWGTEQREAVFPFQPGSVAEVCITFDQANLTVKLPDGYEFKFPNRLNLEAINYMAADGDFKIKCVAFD

IC50 (human Gal-1 (hGal-1)) | IC50 (human Gal-3 (hGal-3)) | SMILES
3970 nM | 165 nM | COc1ncnc(OC)c1CN(C(=O)[C@@H]1O[C@H](CO)[C@H](O)[C@H](n2cc(-c3cc(F)c(F)c(F)c3)nn2)[C@H]1O)[C@H]1CCCC[C@@H]1O [Example 28, (2R,3R,4S,5R,6R)-N-((4,6-dimethoxypyrimidin-5-yl)methyl)-3,5-dihydroxy-N-((1S,2S)-2-hydroxycyclohexyl)-6-(hydroxymethyl)-4-(4-(3,4,5-trifluorophenyl)-1H-1,2,3-triazol-1-yl)tetrahydro-2H-pyran-2-carboxamide]
4410 nM | 232 nM | Cc1ncncc1CN(C(=O)[C@@H]1O[C@H](CO)[C@H](O)[C@H](n2cc(-c3cc(F)c(F)c(F)c3)nn2)[C@H]1O)[C@H]1CCCC[C@@H]1O [Example 29, (2R,3R,4S,5R,6R)-3,5-dihydroxy-N-((1S,2S)-2-hydroxycyclohexyl)-6-(hydroxymethyl)-N-((4-methylpyrimidin-5-yl)methyl)-4-(4-(3,4,5-trifluorophenyl)-1H-1,2,3-triazol-1-yl)tetrahydro-2H-pyran-2-carboxamide]
10400 nM | 575 nM | CO[C@@H]1[C@@H](n2cc(-c3cc(F)c(F)c(F)c3)nn2)[C@@H](O)[C@@H](CO)O[C@H]1C(=O)N(Cc1nc[nH]c1C)[C@H]1CCCC[C@@H]1O [Example 30, (2R,3R,4S,5R,6R)-5-hydroxy-N-((1S,2S)-2-hydroxycyclohexyl)-6-(hydroxymethyl)-3-methoxy-N-((5-methyl-1H-imidazol-4-yl)methyl)-4-(4-(3,4,5-trifluorophenyl)-1H-1,2,3-triazol-1-yl)tetrahydro-2H-pyran-2-carboxamide]
1480 nM | 311 nM | CO[C@@H]1[C@@H](n2cc(-c3cc(F)c(F)c(F)c3)nn2)[C@@H](O)[C@@H](CO)O[C@H]1C(=O)N(Cc1sncc1Cl)[C@H]1CCCC[C@@H]1O [Example 31, (2R,3R,4S,5R,6R)-N-((4-chloroisothiazol-5-yl)methyl)-5-hydroxy-N-((1S,2S)-2-hydroxycyclohexyl)-6-(hydroxymethyl)-3-methoxy-4-(4-(3,4,5-trifluorophenyl)-1H-1,2,3-triazol-1-yl)tetrahydro-2H-pyran-2-carboxamide]
905 nM | 122 nM | CO[C@@H]1[C@@H](n2cc(-c3cc(F)c(F)c(F)c3)nn2)[C@@H](O)[C@@H](CO)O[C@H]1C(=O)N(Cc1ccnn1C)[C@H]1CCCC[C@@H]1O [Example 32]
962 nM | 127 nM | CO[C@@H]1[C@@H](n2cc(-c3cc(F)c(F)c(F)c3)nn2)[C@@H](O)[C@@H](CO)O[C@H]1C(=O)N(Cc1sccc1C)[C@H]1CCCC[C@@H]1O [Example 33, (2R,3R,4S,5R,6R)-5-hydroxy-N-((1S,2S)-2-hydroxycyclohexyl)-6-(hydroxymethyl)-3-methoxy-N-((3-methylthiophen-2-yl)methyl)-4-(4-(3,4,5-trifluorophenyl)-1H-1,2,3-triazol-1-yl)tetrahydro-2H-pyran-2-carboxamide]
863 nM | 69 nM | CO[C@@H]1[C@@H](n2cc(-c3cc(F)c(F)c(F)c3)nn2)[C@@H](O)[C@@H](CO)O[C@H]1C(=O)N(Cc1sccc1C)[C@H]1CCCC[C@@H]1O [Example 34]
1630 nM | 210 nM | CO[C@@H]1[C@@H](n2cc(-c3cc(F)c(F)c(F)c3)nn2)[C@@H](O)[C@@H](CO)O[C@H]1C(=O)N(Cc1sccc1Cl)[C@H]1CCCC[C@@H]1O [Example 35, (2R,3R,4S,5R,6R)-N-((3-chlorothiophen-2-yl)methyl)-5-hydroxy-N-((1S,2S)-2-hydroxycyclohexyl)-6-(hydroxymethyl)-3-methoxy-4-(4-(3,4,5-trifluorophenyl)-1H-1,2,3-triazol-1-yl)tetrahydro-2H-pyran-2-carboxamide]
1030 nM | 231 nM | CO[C@@H]1[C@@H](n2cc(-c3cc(F)c(F)c(F)c3)nn2)[C@@H](O)[C@@H](CO)O[C@H]1C(=O)N(Cc1scnc1C)[C@H]1CCCC[C@@H]1O [Example 36, (2R,3R,4S,5R,6R)-5-hydroxy-N-((1S,2S)-2-hydroxycyclohexyl)-6-(hydroxymethyl)-3-methoxy-N-((4-methylthiazol-5-yl)methyl)-4-(4-(3,4,5-trifluorophenyl)-1H-1,2,3-triazol-1-yl)tetrahydro-2H-pyran-2-carboxamide]
5770 nM | 337 nM | CO[C@@H]1[C@@H](n2cc(-c3cc(F)c(F)c(F)c3)nn2)[C@@H](O)[C@@H](CO)O[C@H]1C(=O)N(Cc1nccn1C)[C@H]1CCCC[C@@H]1O [Example 37, (2R,3R,4S,5R,6R)-5-hydroxy-N-((1S,2S)-2-hydroxycyclohexyl)-6-(hydroxymethyl)-3-methoxy-N-((1-methyl-1H-imidazol-2-yl)methyl)-4-(4-(3,4,5-trifluorophenyl)-1H-1,2,3-triazol-1-yl)tetrahydro-2H-pyran-2-carboxamide]
1680 nM | 207 nM | CO[C@@H]1[C@@H](n2cc(-c3cc(F)c(F)c(F)c3)nn2)[C@@H](O)[C@@H](CO)O[C@H]1C(=O)N(Cc1ccsc1C)[C@H]1CCCC[C@@H]1O [Example 38, (2R,3R,4S,5R,6R)-5-hydroxy-N-((1S,2S)-2-hydroxycyclohexyl)-6-(hydroxymethyl)-3-methoxy-N-((2-methylthiophen-3-yl)methyl)-4-(4-(3,4,5-trifluorophenyl)-1H-1,2,3-triazol-1-yl)tetrahydro-2H-pyran-2-carboxamide]
2960 nM | 224 nM | COc1ccccc1CN(C(=O)[C@@H]1O[C@H](CO)[C@H](O)[C@H](n2cc(-c3cc(F)c(F)c(F)c3)nn2)[C@H]1OC)[C@H]1CCCC[C@@H]1O [Example 39, (2R,3R,4S,5R,6R)-5-hydroxy-N-((1S,2S)-2-hydroxycyclohexyl)-6-(hydroxymethyl)-3-methoxy-N-(2-methoxybenzyl)-4-(4-(3,4,5-trifluorophenyl)-1H-1,2,3-triazol-1-yl)tetrahydro-2H-pyran-2-carboxamide]
4670 nM | 199 nM | COc1cccc(OC)c1CN(C(=O)[C@@H]1O[C@H](CO)[C@H](O)[C@H](n2cc(-c3cc(F)c(F)c(F)c3)nn2)[C@H]1OC)[C@H]1CCCC[C@@H]1O [Example 40, (2R,3R,4S,5R,6R)-N-(2,6-dimethoxybenzyl)-5-hydroxy-N-((1S,2S)-2-hydroxycyclohexyl)-6-(hydroxymethyl)-3-methoxy-4-(4-(3,4,5-trifluorophenyl)-1H-1,2,3-triazol-1-yl)tetrahydro-2H-pyran-2-carboxamide]
12400 nM | 464 nM | Cn1ccnc1CN(C(=O)[C@@H]1O[C@H](CO)[C@H](O)[C@H](n2cc(-c3cc(F)c(F)c(F)c3)nn2)[C@H]1O)[C@H]1CCCC[C@@H]1O [Example 41, (2R,3R,4S,5R,6R)-3,5-dihydroxy-N-((1S,2S)-2-hydroxycyclohexyl)-6-(hydroxymethyl)-N-((1-methyl-1H-imidazol-2-yl)methyl)-4-(4-(3,4,5-trifluorophenyl)-1H-1,2,3-triazol-1-yl)tetrahydro-2H-pyran-2-carboxamide]
34500 nM | 212 nM | CC(=O)O[C@@H]1[C@@H](n2cc(-c3cc(F)c(F)c(F)c3)nn2)[C@@H](O)[C@@H](CO)O[C@H]1C(=O)N(Cc1nccn1C)[C@H]1CCCC[C@@H]1O [Example 42]

From patent US12291519B2, “2-hydroxycycloalkane-1-carbamoyl” (Idorsia Pharmaceuticals Ltd, priority 2019, dated 2025)
